Like-named read-outs stand apart in the source and are kept apart here.
Key:
Type in all cases: cell-based
[1] = test system: C. albicans wildtype and DNA repair mutants; assay: Fungicidal killing, CFU assay; settings: C. albicans rad50/rad50 and rad52/rad52, 3 hours of drug exposure
Description: Overnight yeast cultures were diluted into the indicated media and grown to an OD600 of 0.2, at which point the AFs were added. Colony forming units (CFU) were measured by plating six serial dilutions onto YPD agar plates.
(§1) Overnight yeast cultures were diluted into the indicated media and grown to an OD600 of 0.2, at which point the AFs were added. Colony forming units (CFU) were measured by plating six serial dilutions onto YPD agar plates. Cells treated with MCZ were washed before serial dilution to stop growth inhibition associated with high concentrations of MCZ. CFU were counted after three days of incubation on agar plates. When indicated, thiourea (Fluka) was added 30 min prior to the addition of AFs. HPF (10 μM) (Invitrogen) and Mito Tracker (1 μM) (Invitrogen) dyes were added to PBS-washed cells at the indicated time points and incubated for 30 min prior to flow cytometry measurements, which were taken on the FACSCalibur (Becton-Dickinson). All experiments described in this section were conducted in 0.5 ml of SDC in 24-well plates incubated at 900 rpm and 37° C. for C. albicans and 30° C. and 300 rpm for S. cerevisiae. TUNEL assays were conducted as previously described (Ribeiro et al., 2006) and are described in detail in the TUNEL section of the Experimental Procedures.

S. cerevisiae = assay: Mitochondrial activity by MitoTracker Red fluorescence
Description: It was next sought to assess the mitochondrial activity of AF-treated fungal cells. Yhe MitoTracker Red dye, which enters the mitochondrial matrix by utilizing the proton motive force and thus labels metabolically active mitochondria in viable cells was used (Arita et al., 2006; Tomas et al., 2011). Exponential phase S. cerevisiae were incubated in glucose-free synthetic complete (SC) media for 30 min and then switched to SC containing 2% glucose or non-fermentable acetate for 1.5 hours.
as §1

[2] = test system: S. cerevisiae wildtype and deletion strains

SMILES	susceptibility of DSBR mutants compared to wildtype [1]	increase of MitoTracker fluorescence (S. cerevisiae; drug added to glucose-incubated (SC, 2% glucose) S. cerevisiae) [fold]	additive resistance on deleting the remaining citrate synthases in the cit3 background ([2]; S. cerevisiae CIT1/CIT2 deletions in cit3 background)	CFU (24-well colony forming assay), AF susceptibility vs wildtype ([2]; S. cerevisiae PAB103, SDH2 deletion)	CFU (24-well colony forming assay), AF susceptibility vs wildtype ([2]; S. cerevisiae PAB106, FMS1 deletion)	CFU (24-well colony forming assay), AF susceptibility vs wildtype ([2]; S. cerevisiae PAB107, NDE1 deletion)	CFU (24-well colony forming assay), AF susceptibility vs wildtype ([2]; S. cerevisiae PAB112, MNE1 deletion)	CFU (24-well colony forming assay), AF susceptibility vs wildtype ([2]; S. cerevisiae PAB113, FUM1 deletion)	CFU (24-well colony forming assay), AF susceptibility vs wildtype ([2]; S. cerevisiae PAB114, TPK2 deletion)	CFU (24-well colony forming assay), AF susceptibility vs wildtype ([2]; S. cerevisiae PAB119, CIT2 deletion)	CFU (24-well colony forming assay), AF susceptibility vs wildtype ([2]; S. cerevisiae PAB121, SDH1 deletion)	CFU (24-well colony forming assay), AF susceptibility vs wildtype ([2]; S. cerevisiae PAB122, TPK3 deletion)	CFU (24-well colony forming assay), AF susceptibility vs wildtype ([2]; S. cerevisiae PAB124, TPK1 deletion)	CFU (24-well colony forming assay), AF susceptibility vs wildtype ([2]; S. cerevisiae PAB132, CIT3 deletion)	CFU (24-well colony forming assay), AF susceptibility vs wildtype ([2]; S. cerevisiae PAB135, NDI1 deletion)	CFU (24-well colony forming assay), AF susceptibility vs wildtype ([2]; S. cerevisiae PAB145, CIT1 deletion)	CFU (24-well colony forming assay), AF susceptibility vs wildtype ([2]; S. cerevisiae PAB168, RAS1 deletion)	CFU (24-well colony forming assay), AF susceptibility vs wildtype ([2]; S. cerevisiae PAB171, RAS2 deletion)	reduction of killing at 3 hours by thiourea ([2]; S. cerevisiae, 50 mM thiourea for 30 minutes prior to the addition of AF drugs) [fold]	MitoTracker fluorescence in acetate-incubated vs glucose-incubated cells (S. cerevisiae; S. cerevisiae, SC with non-fermentable acetate, 1.5 hours)
Cc1cc(C2CCCCC2)n(O)c(=O)c1 [CIC, cicloplrox olamine]	particularly susceptible	10	not observed	Resistant (″Resistant″ or ″Sensitive″ indicate at least a 5-fold CFU difference from wildtype at the final time point)	Normal	Resistant (″Resistant″ or ″Sensitive″ indicate at least a 5-fold CFU difference from wildtype at the final time point)	Resistant (″Resistant″ or ″Sensitive″ indicate at least a 5-fold CFU difference from wildtype at the final time point)	Resistant (″Resistant″ or ″Sensitive″ indicate at least a 5-fold CFU difference from wildtype at the final time point)	Normal	Resistant (″Resistant″ or ″Sensitive″ indicate at least a 5-fold CFU difference from wildtype at the final time point)	Resistant (″Resistant″ or ″Sensitive″ indicate at least a 5-fold CFU difference from wildtype at the final time point)	Resistant (″Resistant″ or ″Sensitive″ indicate at least a 5-fold CFU difference from wildtype at the final time point)	Resistant (″Resistant″ or ″Sensitive″ indicate at least a 5-fold CFU difference from wildtype at the final time point)	Resistant (″Resistant″ or ″Sensitive″ indicate at least a 5-fold CFU difference from wildtype at the final time point)	Resistant (″Resistant″ or ″Sensitive″ indicate at least a 5-fold CFU difference from wildtype at the final time point)	Resistant (″Resistant″ or ″Sensitive″ indicate at least a 5-fold CFU difference from wildtype at the final time point)	Resistant (″Resistant″ or ″Sensitive″ indicate at least a 5-fold CFU difference from wildtype at the final time point)	Resistant (″Resistant″ or ″Sensitive″ indicate at least a 5-fold CFU difference from wildtype at the final time point)	~15	–
CC(=O)O [acetate]	–	–	–	–	–	–	–	–	–	–	–	–	–	–	–	–	–	–	–	approximately 5 fold
